Where “and” joins values, the source holds several entries; their conditions need not be identical. Equal entries are not always repeated.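 Grown in 96-well plates, cells were treated for 48 hours with each compound at five concentrations. Insufficient inhibition: endpoint recorded as highest concentration tested. GI50 marks 50% less growth. At the TGI there is no net growth.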 Some results are limits rather than exact numbers.

In one test the test system is DLD-1 colon. As to the kind of experiment: DTP human tumour cell line panel, 48 h.
A word on the TGI: it is the concentration at which net growth stops. Read a low TGI as greater sensitivity of the cells. As for `O=C(c1ccc(Cl)cc1)c1cnc(Nc2ccccc2Cl)s1`, the TGI was greater than 100 µM.
In turn, `CCOc1ccc(N2C(=O)/C(=C/c3ccc(N(CCC#N)CCC#N)cc3)N=C2c2cc([N+](=O)[O-])ccc2Cl)cc1` yielded a concentration for total growth inhibition (TGI) greater than 100 µM.
As to `COc1ccc(-c2cc(-c3ccccc3)c(C#N)c(=O)n2C2OC(CO)C(O)C(O)C2O)cc1` (centres undefined), the TGI was greater than 100 µM.
Still for that read-out and setting: next, `CCOC(=O)C1(c2ccccc2)CCC(=O)CC1`: greater than 100 µM; `O=C(N/N=C1/C(=O)N(c2ccc(Cl)cc2Cl)C(=O)C(=O)C1c1nc2ccccc2o1)c1ccccc1O` (centres undefined): greater than 100 µM.
For the compound `O=C(O)CSc1n[nH]c(-c2ccccc2)n1`, the TGI is greater than 100 µM.
`O=C(O)[C@H](NS(=O)(=O)c1ccc2ccccc2c1)c1ccccc1` gave a TGI greater than 100 µM.

A further test relates to SW-620 colon. Nature of the test: DTP human tumour cell line panel, 48 h.
Take `c1ccc(SC2CCSc3ccccc3C2Sc2ccccc2)cc1` (centres undefined): the TGI was greater than 100 µM.
For `COC(=O)[C@]1(C)CCCC2(C)C1CC[C@H]1C=C(C)[C@H]3CCC12C3` (some centres undefined), the TGI is greater than 100 µM.
The compound `O=C(Nc1cc(Cl)ccc1Cl)c1cc2cccc(Cl)c2oc1=O` showed a TGI greater than 100 µM.
`O=c1n(-c2ccccc2)c(=O)n2n1C1C=CC2C2C(C1)C2(Cl)Cl` (centres undefined) came in with a TGI greater than 100 µM.
The same measure, in the same setting: next, `Cc1ccc(Cn2c(C)nc3c2C(=O)c2ccccc2C3=O)cc1`: greater than 100 µM; `CCOC(=O)C(C)(C)Oc1ccc2c(C)c(-c3ccc(Cl)cc3)c(=O)oc2c1`: greater than 100 µM; `Cc1c(Cl)cccc1N1C(=O)C(Cl)=C(Cl)C1=O`: greater than 100 µM.
With `COc1ccc(NC(=O)/C(N=O)=C(/C)O)cc1`, the TGI came to 30 µM.
As usually defined, the GI50 is the concentration giving 50% growth inhibition. `COc1cccc(/C=N/[N-]C(=O)c2ccncc2)c1[O-].[Cu+2].[OH3+]`: the GI50 was 48.2 µM and the TGI was greater than 100 µM.
With `CCc1c(OC(C)=O)c2c(NC3OC(COC(C)=O)C(OC(C)=O)C(OC(C)=O)C3OC(C)=O)nc(OC)nc2oc1=O` (centres undefined), the TGI was greater than 100 µM.
On the same count and under the same terms, next, `O=C(NC(=O)c1cn(CCNCCO)c(=O)[nH]c1=O)OCc1ccccc1`: greater than 100 µM.
As to `O=[N+]([O-])c1ccc(-n2nnc(C3=NCCN3)c2-c2ccc(Cl)cc2)cc1`, the TGI was greater than 100 µM.
On to `O=C(c1ccc(Cl)cc1)c1cnc(Nc2ccccc2Cl)s1`, for which the TGI is greater than 100 µM.
The same measure, in the same setting: next, `CCC1C2C=CC(CC2)N1S(=O)(=O)c1ccc(C)cc1` (centres undefined): 50.3 µM; `CCOc1ccc(N2C(=O)/C(=C/c3ccc(N(CCC#N)CCC#N)cc3)N=C2c2cc([N+](=O)[O-])ccc2Cl)cc1`: 55.9 µM.
In the case of `COc1ccc(-c2cc(-c3ccccc3)c(C#N)c(=O)n2C2OC(CO)C(O)C(O)C2O)cc1` (centres undefined), the TGI is greater than 100 µM.
Still for that read-out and setting: next, `CCOC(=O)C1(c2ccccc2)CCC(=O)CC1`: greater than 100 µM; `O=C(N/N=C1/C(=O)N(c2ccc(Cl)cc2Cl)C(=O)C(=O)C1c1nc2ccccc2o1)c1ccccc1O` (centres undefined): greater than 100 µM.
In turn, `CC(=O)O[C@H]1CCC2[C@@H]3CCC4=C(O)c5nocc5C[C@]4(C)C3CC[C@@]21C` (some centres undefined) displayed a TGI greater than 100 µM.
`O=C(O)CSc1n[nH]c(-c2ccccc2)n1` yielded a TGI greater than 100 µM.
As to `O=c1cc2oc3cc(O)c(O)cc3c(-c3ccccc3O)c-2cc1O`, the GI50 is 32.7 µM and the TGI is greater than 100 µM.
On to `C[C@H]1Oc2cc(cnc2N)-c2c(nn(C)c2C#N)CN(C)C(=O)c2ccc(F)cc21`, for which the GI50 was 35.6 µM and the TGI was greater than 100 µM.
On the same counts, the results for `COc1ccccc1N1CCN(CCCn2c(=O)c3c(OC)nc(C)cc3c(=O)n2-c2ccccc2)CC1` are greater than 100 µM and greater than 100 µM.
On to `Cc1ccc(-c2nc3ccc([N+](=O)[O-])cc3[nH]2)cc1`, for which the TGI was greater than 100 µM.
Take `CC(=O)c1cc2c(o1)C(=O)c1ccccc1C2=O`: the GI50 was 0.288 µM and 0.276 µM; the TGI was 0.794 µM and 0.756 µM.
Turning to `CCN(CC)c1nc(-c2ccc(Cl)cc2Cl)nc2ccccc12`, the GI50 was 15.5 µM and the TGI came out at 34.4 µM.
Regarding `Cc1nc2ccccc2nc1-c1ccc(N=[N+]([O-])c2ccc(-c3nc4ccccc4nc3C)cc2)cc1`, the TGI was greater than 100 µM.

Another test concerns MDA-MB-231 breast. As to the kind of experiment: DTP human tumour cell line panel, 48 h.
On to `O=C(c1ccc(Cl)cc1)c1cnc(Nc2ccccc2Cl)s1`, for which the TGI was greater than 100 µM.
On to `O=c1cc2oc3cc(O)c(O)cc3c(-c3ccccc3O)c-2cc1O`, for which the GI50 was 10.2 µM and the TGI is greater than 100 µM.
Take `C[C@H]1Oc2cc(cnc2N)-c2c(nn(C)c2C#N)CN(C)C(=O)c2ccc(F)cc21`: the GI50 is 18.1 µM and the TGI was greater than 100 µM.
With `COc1ccccc1N1CCN(CCCn2c(=O)c3c(OC)nc(C)cc3c(=O)n2-c2ccccc2)CC1`, the GI50 is greater than 100 µM and the TGI was greater than 100 µM.
Take `Cc1ccc(-c2nc3ccc([N+](=O)[O-])cc3[nH]2)cc1`: the TGI was greater than 100 µM.
As to `CC(=O)c1cc2c(o1)C(=O)c1ccccc1C2=O`, the GI50 was 0.765 µM and 1.66 µM; the TGI is 4.29 µM and 6.88 µM.
As to `CCN(CC)c1nc(-c2ccc(Cl)cc2Cl)nc2ccccc12`, the GI50 was 4.2 µM and the TGI was found to be 23.2 µM.
As for `Cc1nc2ccccc2nc1-c1ccc(N=[N+]([O-])c2ccc(-c3nc4ccccc4nc3C)cc2)cc1`, the TGI is greater than 80.2 µM.

For the next test, the system named is SNB-19 CNS. As to the kind of experiment: DTP human tumour cell line panel, 48 h.
Compound `c1ccc(SC2CCSc3ccccc3C2Sc2ccccc2)cc1` (centres undefined) had a TGI greater than 100 µM.
`COC(=O)[C@]1(C)CCCC2(C)C1CC[C@H]1C=C(C)[C@H]3CCC12C3` (some centres undefined) displayed a total growth inhibition concentration (TGI) greater than 100 µM.
Compound `O=c1n(-c2ccccc2)c(=O)n2n1C1C=CC2C2C(C1)C2(Cl)Cl` (centres undefined) displayed a TGI greater than 100 µM.
Regarding `Cc1ccc(Cn2c(C)nc3c2C(=O)c2ccccc2C3=O)cc1`, the TGI turned out to be 49.8 µM.
Compound `CCOC(=O)C(C)(C)Oc1ccc2c(C)c(-c3ccc(Cl)cc3)c(=O)oc2c1` showed a TGI greater than 100 µM.
In turn, `Cc1c(Cl)cccc1N1C(=O)C(Cl)=C(Cl)C1=O` displayed a TGI greater than 100 µM.
For the compound `COc1ccc(NC(=O)/C(N=O)=C(/C)O)cc1`, the TGI is greater than 100 µM.
As to `COc1cccc(/C=N/[N-]C(=O)c2ccncc2)c1[O-].[Cu+2].[OH3+]`, the GI50 is greater than 100 µM and the TGI was greater than 100 µM.
Take `CCc1c(OC(C)=O)c2c(NC3OC(COC(C)=O)C(OC(C)=O)C(OC(C)=O)C3OC(C)=O)nc(OC)nc2oc1=O` (centres undefined): the TGI was greater than 100 µM.
Compound `O=[N+]([O-])c1ccc(-n2nnc(C3=NCCN3)c2-c2ccc(Cl)cc2)cc1` displayed a TGI greater than 100 µM.

The values are drawn from PubChem BioAssay (NCI).
